Measurements reported in ChEMBL document CHEMBL1201862, “PubChem BioAssay data set” (2004).
The source made the active and inactive calls.

Legend:
CHO-K1 = assay: Counterscreen for antagonists of the orexin 1 receptor (OX1R; HCRTR1): Homogeneous time resolved fluorescence (HTRF)-based cell-based dose response assay to identify antagonists of the parental CHO-K1 cell line. [Related pubchem assays (depositor defined):AID434989, AID435008, AID463079, AID485270, AID492963, AID492964, AID492965, AID493232, AID504699, AID504701]; type: functional; settings: Cricetulus griseus;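 note: potency for inhibition of ATP-stimulated IP1 production as antagonists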
[1] = Counterscreen for antagonists of the orexin 1 receptor (OX1R; HCRTR1): Fluorescence-based cell-based high throughput dose response assay to identify antagonists of the parental CHO cell line. [Related pubchem assays (depositor defined):AID434989, AID435008, AID463079, AID485270, AID492963, AID492964, AID492965, AID493232, AID504699, AID504701]; type: functional
[2] = target: T1, Orexin/Hypocretin receptor type 1 (Homo sapiens, UniProt O43613); assay: Homogeneous Time Resolved Fluorescence (HTRF)-based cell-based high throughput dose response assay for antagonists of the orexin 1 receptor (OX1R; HCRTR1). [Related pubchem assays (depositor defined):AID434989, AID435008, AID463079, AID485270, AID492963, AID492964, AID492965, AID493232, AID504717, AID504718]; type: functional
T1 sequence (O43613 whole entry): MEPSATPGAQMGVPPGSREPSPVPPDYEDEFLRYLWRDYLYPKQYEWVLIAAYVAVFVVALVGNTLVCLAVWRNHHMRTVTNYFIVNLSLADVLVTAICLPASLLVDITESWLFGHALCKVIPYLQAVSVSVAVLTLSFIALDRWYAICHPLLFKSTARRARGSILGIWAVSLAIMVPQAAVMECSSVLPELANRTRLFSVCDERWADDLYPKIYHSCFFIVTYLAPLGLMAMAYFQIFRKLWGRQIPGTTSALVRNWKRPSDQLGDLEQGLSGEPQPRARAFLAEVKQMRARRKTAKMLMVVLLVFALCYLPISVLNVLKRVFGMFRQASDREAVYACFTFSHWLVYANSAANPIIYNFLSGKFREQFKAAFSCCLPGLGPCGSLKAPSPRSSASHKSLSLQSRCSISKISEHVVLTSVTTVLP

[3] = target: T1, Orexin/Hypocretin receptor type 1; assay: Fluorescence-based cell-based high throughput dose response assay for antagonists of the orexin 1 receptor (OX1R; HCRTR1). [Related pubchem assays (depositor defined):AID434989, AID435008, AID463079, AID485270, AID492963, AID492964, AID492965, AID493232, AID504717, AID504718]; type: functional
Orexin receptor type 2 [4] = target: T2, Orexin receptor type 2 (Homo sapiens, UniProt O43614); assay: Counterscreen assay for antagonists of the orexin 1 receptor (OX1R; HCRTR1): Fluorescence-based cell-based dose response assay for antagonists of the orexin 2 receptor (OX2R; HCRTR2), run by assay provider.; type: functional
T2 sequence (O43614 whole entry): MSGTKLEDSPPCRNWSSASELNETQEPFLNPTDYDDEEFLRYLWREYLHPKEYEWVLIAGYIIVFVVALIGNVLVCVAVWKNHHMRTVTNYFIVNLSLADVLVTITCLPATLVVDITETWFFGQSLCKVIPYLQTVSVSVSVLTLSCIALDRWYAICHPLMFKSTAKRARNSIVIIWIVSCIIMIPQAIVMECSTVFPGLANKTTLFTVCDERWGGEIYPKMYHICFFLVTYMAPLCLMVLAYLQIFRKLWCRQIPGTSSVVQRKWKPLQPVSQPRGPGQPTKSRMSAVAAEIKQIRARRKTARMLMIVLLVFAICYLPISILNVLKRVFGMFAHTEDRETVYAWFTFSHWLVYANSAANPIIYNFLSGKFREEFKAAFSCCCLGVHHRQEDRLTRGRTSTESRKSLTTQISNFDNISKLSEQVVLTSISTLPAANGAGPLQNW

Orexin receptor type 2 [5] = target: T2, Orexin receptor type 2; assay: Counterscreen assay for antagonists of the orexin 1 receptor (OX1R; HCRTR1): Homogeneous Time Resolved Fluorescence (HTRF)-based cell-based dose response assay for antagonists of the orexin 2 receptor (OX2R; HCRTR2), run by assay provider.; type: functional
Cysteine protease ATG4B = Cysteine protease ATG4B (Homo sapiens, UniProt Q9Y4P1); type: functional;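 note: Fluorescence-based dose-response confirmation assay measuring inhibition of ATG4B activity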
Phospholipase A2 = Phospholipase A2 (Homo sapiens, UniProt P04054); type: functional;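 note: confirmatory dose-response counterscreen on phospholipase A2, testing hits that came from an ultra-high-throughput screen for ATG4B inhibitors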
[6] = target: T3, High affinity choline transporter 1 (Homo sapiens, UniProt Q9GZV3); assay: human choline transporter potentiators, potency – cell-based, 10-point CRC, membrane potential dye, dose response (AID 602376); type: functional
T3 sequence (Q9GZV3 whole entry): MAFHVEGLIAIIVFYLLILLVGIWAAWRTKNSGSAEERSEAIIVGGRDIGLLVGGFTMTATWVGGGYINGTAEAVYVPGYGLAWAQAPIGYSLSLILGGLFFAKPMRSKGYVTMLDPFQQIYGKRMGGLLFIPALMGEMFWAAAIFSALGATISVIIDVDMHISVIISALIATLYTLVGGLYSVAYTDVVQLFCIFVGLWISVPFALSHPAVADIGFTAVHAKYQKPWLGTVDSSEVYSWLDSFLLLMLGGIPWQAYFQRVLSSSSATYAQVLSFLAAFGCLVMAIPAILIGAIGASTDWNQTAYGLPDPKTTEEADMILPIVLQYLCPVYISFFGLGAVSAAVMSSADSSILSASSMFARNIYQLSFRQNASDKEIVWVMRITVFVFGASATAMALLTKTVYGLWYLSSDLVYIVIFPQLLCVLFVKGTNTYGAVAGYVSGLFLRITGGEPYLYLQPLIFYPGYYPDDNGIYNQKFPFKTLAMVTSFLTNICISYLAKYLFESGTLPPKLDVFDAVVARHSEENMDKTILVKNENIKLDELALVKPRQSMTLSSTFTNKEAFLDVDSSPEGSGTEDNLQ

HEK293 = assay: cells; type: functional, cell-based; settings: Homo sapiens
[7] = target: T4, Nuclear receptor subfamily 0 group B member 1 (Homo sapiens, UniProt P51843); assay: Luminescence-based cell-based high throughput dose response assay for inhibitors of the orphan nuclear receptor subfamily 0, group B, member 1 (DAX1; NR0B1). [Related pubchem assays (depositor defined):AID504766, AID504790]; type: functional
T4 sequence (P51843 whole entry): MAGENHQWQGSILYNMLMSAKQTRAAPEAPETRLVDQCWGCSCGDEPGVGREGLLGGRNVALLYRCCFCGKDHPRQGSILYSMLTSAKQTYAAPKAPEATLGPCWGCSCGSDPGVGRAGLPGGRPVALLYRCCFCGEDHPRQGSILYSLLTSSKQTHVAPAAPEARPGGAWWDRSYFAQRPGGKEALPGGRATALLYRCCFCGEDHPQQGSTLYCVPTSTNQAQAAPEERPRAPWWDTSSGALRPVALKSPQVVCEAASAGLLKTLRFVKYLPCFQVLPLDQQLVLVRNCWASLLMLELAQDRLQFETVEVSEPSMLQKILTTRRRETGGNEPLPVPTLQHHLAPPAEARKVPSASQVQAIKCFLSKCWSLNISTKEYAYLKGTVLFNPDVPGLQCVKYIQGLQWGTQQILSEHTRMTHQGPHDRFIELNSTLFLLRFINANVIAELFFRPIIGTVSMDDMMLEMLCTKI

[8] = target: Induced myeloid leukemia cell differentiation protein Mcl-1 (Homo sapiens, UniProt Q07820); type: functional
Genome polyprotein = Genome polyprotein (dengue virus type 2, UniProt P29990); assay: flavivirus cap methylation enzyme inhibition – biochemical, confirmation dose response, primary screen (AID 588689); type: functional
[9] = target: Dual specificity tyrosine-phosphorylation-regulated kinase 1A (Rattus norvegicus, UniProt Q63470); type: biochemical, Homo sapiens
Protein skinhead-1 = target: T5, Protein skinhead-1 (Caenorhabditis elegans, UniProt P34707); type: functional
T5 sequence (P34707 whole entry): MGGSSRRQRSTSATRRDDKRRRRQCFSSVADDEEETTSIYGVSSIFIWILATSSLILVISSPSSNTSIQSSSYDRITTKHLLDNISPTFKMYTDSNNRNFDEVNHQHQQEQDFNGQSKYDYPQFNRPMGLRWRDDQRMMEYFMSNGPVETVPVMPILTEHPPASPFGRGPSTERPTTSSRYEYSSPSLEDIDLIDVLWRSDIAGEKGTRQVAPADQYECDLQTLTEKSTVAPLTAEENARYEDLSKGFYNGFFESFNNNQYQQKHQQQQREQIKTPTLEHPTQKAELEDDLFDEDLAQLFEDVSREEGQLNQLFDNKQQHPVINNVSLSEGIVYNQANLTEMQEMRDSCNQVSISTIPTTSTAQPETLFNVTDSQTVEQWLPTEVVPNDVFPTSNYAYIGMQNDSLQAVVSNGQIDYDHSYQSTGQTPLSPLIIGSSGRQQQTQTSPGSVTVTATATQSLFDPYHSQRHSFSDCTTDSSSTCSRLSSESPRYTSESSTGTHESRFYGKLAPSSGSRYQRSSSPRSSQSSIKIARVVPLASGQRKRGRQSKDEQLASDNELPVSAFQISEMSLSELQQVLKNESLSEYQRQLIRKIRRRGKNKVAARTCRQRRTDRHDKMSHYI

[10] = decrease of insulin promoter-GFP reporter – imaging, high-content screening, mouse beta cells (AID 1628); type: functional; settings: MIN6
BJ [11] = assay: BJ-TERT fibroblast viability loss – cell-based, RAS-independent, luminescence, dose response (AID 1933); type: functional; settings: Homo sapiens
[12] = MIN6 cell viability loss – mouse insulinoma, cytotoxicity control, dose response (AID 2122); type: functional;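 note: confirmatory high-throughput counterscreen run to flag cytotoxic compounds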
BJ [13] = assay: cells; type: functional, cell-based; settings: Homo sapiens
BJ [14] = assay: BJ-TERT-LT-ST fibroblast viability loss – cell-based, RAS-independent, luminescence, dose response (AID 1935); type: functional; settings: Homo sapiens;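 note: BJ fibroblasts immortalized with TERT plus LT and ST oncogenes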
[15] = DRD fibroblast viability loss – cell-based, non-viral oncogenic, luminescence, dose response (AID 1934); type: functional; settings: Homo sapiens
[16] = THP-1 cell cytotoxicity, dose response, cytotoxicity control for non-replicating M. tuberculosis project (AID 489025); type: functional
[17] = HepG2 cell cytotoxicity, dose response, cytotoxicity control for non-replicating M. tuberculosis project (AID 489018); type: functional; settings: Mycobacterium tuberculosis
[18] = target: T6, Ubiquitin-conjugating enzyme E2 N (Homo sapiens, UniProt P61088); type: functional;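 note: Dose-response confirmation in a TR-FRET assay detecting UBC13-driven polyubiquitin chain formation, inhibition measured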
T6 sequence (P61088 whole entry): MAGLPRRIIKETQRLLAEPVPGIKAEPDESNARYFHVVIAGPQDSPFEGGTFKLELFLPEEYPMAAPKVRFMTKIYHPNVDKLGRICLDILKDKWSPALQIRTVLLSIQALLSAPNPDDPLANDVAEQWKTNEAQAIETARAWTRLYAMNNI

[19] = Vero E6 cell cytotoxicity, dose response, cytotoxicity control for non-replicating M. tuberculosis project, secondary assay (AID 492998); type: functional, VeroE6; settings: Vero C1008
cells = type: functional
BJ [20] = assay: growth inhibition of engineered Ras-driven BJ cells – cell-based, alamar blue fluorescence, cherrypicked samples, dose response (AID 2631); type: functional; settings: Homo sapiens;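 note: confirmatory dose-response assay in RAS-dependent BJ fibroblasts engineered with TERT, LT and ST, with cytotoxicity read by fluorescence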
[21] = Fluorescence-based cell-based high throughput dose response assay for inhibitors of the interaction of nucleotide-binding oligomerization domain containing 2 (NOD2) and the receptor-interacting serine-threonine kinase 2 (RIPK2).; type: functional; settings: Homo sapiens
Beta Lactamase = Beta Lactamase (Pseudomonas aeruginosa, UniProt Q932Y6); assay: BLA reporter interference, concentration series – BLA reporter cells, FRET fluorescence, artefact control for NOD2-RIPK2 interaction inhibitor project, dose response (AID 651552); type: functional, cell-based
Sequence of Beta Lactamase (Q932Y6 whole entry): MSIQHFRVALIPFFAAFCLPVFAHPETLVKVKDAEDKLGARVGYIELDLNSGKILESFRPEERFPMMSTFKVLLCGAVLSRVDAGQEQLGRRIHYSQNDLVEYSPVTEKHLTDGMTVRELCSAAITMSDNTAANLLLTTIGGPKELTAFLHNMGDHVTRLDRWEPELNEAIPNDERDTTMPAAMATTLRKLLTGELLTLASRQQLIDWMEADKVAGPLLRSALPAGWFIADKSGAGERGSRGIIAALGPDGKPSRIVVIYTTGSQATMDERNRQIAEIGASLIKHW

Sequence of Cysteine protease ATG4B (Q9Y4P1 whole entry): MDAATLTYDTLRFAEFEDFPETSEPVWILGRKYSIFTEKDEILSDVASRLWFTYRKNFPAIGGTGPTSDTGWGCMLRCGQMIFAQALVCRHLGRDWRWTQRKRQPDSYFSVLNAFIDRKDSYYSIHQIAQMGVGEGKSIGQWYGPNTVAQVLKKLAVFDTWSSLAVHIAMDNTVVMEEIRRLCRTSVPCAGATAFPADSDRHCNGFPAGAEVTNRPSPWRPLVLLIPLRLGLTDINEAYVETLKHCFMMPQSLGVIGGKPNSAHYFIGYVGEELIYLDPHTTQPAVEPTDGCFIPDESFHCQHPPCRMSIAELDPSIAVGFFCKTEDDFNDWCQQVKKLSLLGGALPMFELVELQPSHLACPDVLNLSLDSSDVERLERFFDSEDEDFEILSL
Sequence of Phospholipase A2 (P04054 whole entry): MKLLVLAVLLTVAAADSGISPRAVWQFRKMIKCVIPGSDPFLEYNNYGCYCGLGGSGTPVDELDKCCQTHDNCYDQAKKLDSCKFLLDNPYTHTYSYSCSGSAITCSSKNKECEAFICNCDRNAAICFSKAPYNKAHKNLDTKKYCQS
Sequence of Induced myeloid leukemia cell differentiation protein Mcl-1 (Q07820 whole entry): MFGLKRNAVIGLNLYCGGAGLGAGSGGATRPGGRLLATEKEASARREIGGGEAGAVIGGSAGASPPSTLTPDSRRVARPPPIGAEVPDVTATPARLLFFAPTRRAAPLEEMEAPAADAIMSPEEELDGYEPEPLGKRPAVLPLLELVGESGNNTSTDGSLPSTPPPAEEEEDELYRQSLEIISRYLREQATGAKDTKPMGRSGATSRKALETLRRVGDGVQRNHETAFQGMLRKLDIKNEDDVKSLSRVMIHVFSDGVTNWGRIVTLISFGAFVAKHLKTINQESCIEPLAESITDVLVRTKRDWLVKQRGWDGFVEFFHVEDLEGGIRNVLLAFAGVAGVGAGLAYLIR
Sequence of Genome polyprotein (P29990 2492-3391 limits assumed): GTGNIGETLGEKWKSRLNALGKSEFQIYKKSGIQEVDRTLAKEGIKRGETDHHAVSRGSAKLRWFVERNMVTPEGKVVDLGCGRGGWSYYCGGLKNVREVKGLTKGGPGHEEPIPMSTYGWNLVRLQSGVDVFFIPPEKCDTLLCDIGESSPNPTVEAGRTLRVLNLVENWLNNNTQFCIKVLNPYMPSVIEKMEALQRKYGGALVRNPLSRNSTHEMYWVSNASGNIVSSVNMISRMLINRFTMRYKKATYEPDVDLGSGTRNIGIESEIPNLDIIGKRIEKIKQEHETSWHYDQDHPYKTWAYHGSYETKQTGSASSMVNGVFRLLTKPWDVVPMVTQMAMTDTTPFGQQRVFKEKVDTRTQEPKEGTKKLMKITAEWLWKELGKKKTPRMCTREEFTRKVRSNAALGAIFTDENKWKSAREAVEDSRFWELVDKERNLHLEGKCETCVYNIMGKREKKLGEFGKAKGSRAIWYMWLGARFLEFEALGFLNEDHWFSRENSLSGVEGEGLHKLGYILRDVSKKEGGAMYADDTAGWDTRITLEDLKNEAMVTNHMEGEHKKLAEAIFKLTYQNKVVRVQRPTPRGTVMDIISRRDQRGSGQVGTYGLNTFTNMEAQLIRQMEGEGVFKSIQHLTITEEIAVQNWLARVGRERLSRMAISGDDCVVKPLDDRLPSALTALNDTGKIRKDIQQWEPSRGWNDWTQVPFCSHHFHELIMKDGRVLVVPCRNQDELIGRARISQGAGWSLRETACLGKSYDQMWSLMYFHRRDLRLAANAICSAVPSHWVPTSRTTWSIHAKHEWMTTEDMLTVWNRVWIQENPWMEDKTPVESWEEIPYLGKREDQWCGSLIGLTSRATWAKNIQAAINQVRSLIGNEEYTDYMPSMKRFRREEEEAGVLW

COc1ccc2c(Cl)c(C(=O)N/N=C/c3c(C)[nH]c4ccccc34)sc2c1
IC50 (CHO-K1): > 66.2 µM (inactive)
IC50 [1]: > 49.8 µM (inactive)
IC50 [2]: 2.04 µM (active)
IC50 [3]: 6.57 µM (active)
IC50 (Orexin receptor type 2 [4]): 23.2 µM (inactive)
IC50 (Orexin receptor type 2 [5]): > 50 µM (inactive)

Cc1cc(OC(=O)c2cccs2)ccc1C(C)C
IC50 (Cysteine protease ATG4B): 5.44 µM (active)
IC50 (Phospholipase A2): 3.74 µM (active)

COc1ccc(C(CCNCc2ccc(OC)c(OC)c2)c2ccc(F)cc2)cc1 (stereo unspecified)
EC50 [6]: 20.9 µM (active)

COc1cc(SC)ccc1C(=O)Nc1ccc2c(c1)OCO2
IC50 (HEK293): > 67.6 µM (inactive)
IC50 [7]: > 67.6 µM (inactive)

Cc1ccc(/N=C2N=C(O)/C(=C/C=C/c3ccco3)S\2)cc1C
IC50 [8]: 13.4 µM (active)
IC50 (Cysteine protease ATG4B): 6.65 µM (active)
IC50 (Phospholipase A2): 5.94 µM (active)

NS(=O)(=O)c1ccc(N=Nc2c(O)c(C(=O)O)cc3ccccc23)cc1
IC50 (Genome polyprotein): > 100 µM (active)
AC50 [9]: 3.59 µM (active)

CC(=O)Nc1nc2ccc(Br)cc2s1
AC50 [9]: 3.33 µM (active)
IC50 (Protein skinhead-1): > 100 µM (inactive)

COc1ccc(-c2nc3ccccc3s2)cc1O
IC50 (CHO-K1): > 66.2 µM (inactive)
IC50 [1]: > 49.8 µM (inactive)
IC50 [2]: 3.25 µM (active)
IC50 [3]: 9.38 µM (active)
IC50 (Orexin receptor type 2 [4]): 56 µM (inactive)
IC50 (Orexin receptor type 2 [5]): 9.41 µM (active)

CCCCCOc1ccc(Br)cc1/C(C)=N/NC1=NCCN1
IC50 [10]: 1.6 µM (active)
EC50 (BJ [11]): 2.99 µM (active)
IC50 [12]: 1.26 µM (active)
EC50 (BJ [13]): 8.5 µM (active)
EC50 (BJ [14]): 4.48 µM (inconclusive)
EC50 [15]: 5.8 µM (active)
CC50 [16]: 2.09 µM (active)
CC50 [17]: 11.3 µM (active)
IC50 [18]: > 20 µM (inactive)
CC50 [19]: 5.08 µM (active)
IC50 (cells): 21.4 µM (active)
EC50 (BJ [20]): 0.647 µM (active)
EC50 [6]: 14.8 µM (active)
IC50 [21]: 39.9 µM (inactive)
IC50 (Beta Lactamase): 49.8 µM (inactive)

CCn1c(C)cc(C(=O)COC(=O)c2cccnc2SC)c1C
IC50 (HEK293): > 67.5 µM (inactive)
IC50 [7]: > 67.5 µM (inactive)
